# Measurements reported in ChEMBL document CHEMBL1681727, “X-ray and molecular modelling in fragment-based design of three small quinoline scaffolds for HIV integrase inhibitors” (Bioorg Med Chem, 2011).
# Experiment: Inhibition of Human immunodeficiency virus integrase
row,IC50 [µM],Structure (SMILES)
1,47,Cc1ccc2c(O)c(C(=O)O)ccc2n1
2,77,CC(=O)NC1=CC(=O)c2ccc(C)nc2C1=O
3,> 100,Cc1ccc2ccc(C(=O)O)c(O)c2n1
